Measurements: ChEMBL document CHEMBL4831556, “Discovery of a Novel Potent and Selective Calcium Release-Activated Calcium Channel Inhibitor: 2,6-Difluoro-N-(2'-methyl-3'-(4-methyl-5-oxo-4,5-dihydro-1,3,4-oxadiazol-2-yl)-[1,1'-biphenyl]-4-yl)benzamide. Structure-Activity Relationship and Preclinical Characterization” (J Med Chem, 2021)
Several values for one entry are separate records, joined by “and”; a condition that tells them apart may be missing. Equal entries are not always repeated.

Columns and labels:
[1] = Cmax in BALB/c mouse model of mBSA-induced delayed type hypersensitivity at 10 mg/kg, po administered twice daily for 7 days followed by mBSA challenge and measured after 24 hrs; assay type: ADME, organism-based; design: route oral, dose 10 mg/kg, time 8 day; settings: in vivo
[2] = Cmax in rat at 1 mg/kg/day; assay type: ADME, organism-based; design: dose 1 mg/kg/day; settings: in vivo
[3] = Cmax in rat at 60 mg/kg/day after 2 weeks; assay type: ADME, organism-based; design: time 2 weeks, dose 60 mg/kg/day; settings: in vivo
[4] = Tmax in CFA-induced rheumatoid arthritis Lewis rat model at 3 mg/kg, po administered once daily for 15 days; assay type: ADME, organism-based; settings: in vivo, time 15 day
[5] = Tmax in collagen-induced rheumatoid arthritis DBA/1J mouse model at 3 mg/kg, po administered twice daily for 15 days; assay type: ADME, organism-based; settings: in vivo, time 15 day
[6] = Metabolic stability in dog liver microsomes preincubated for 5 mins followed by NADPH addition and measured upto 30 mins by LC-MS/MS analysis; assay type: ADME, Canis lupus familiaris, Microsome; settings: 0.5 h, time <=35 min
[7] = Cmax in CFA-induced rheumatoid arthritis Lewis rat model at 0.3 mg/kg, po administered once daily for 15 days; assay type: ADME, organism-based; design: route oral, dose 0.3 mg/kg, time 15 day; settings: in vivo
[8] = Toxicity in mouse assessed as maximum tolerated dose; settings: in vivo
[9] = Trough concentration in human whole blood at 160 mg, qd; assay type: ADME, tissue-based; settings: read-out: Cmin
[10] = Volume of distribution at steady state in BALB/c mouse at 1 mg/kg, iv measured upto 24 hrs by LC-MS/MS analysis; assay type: ADME, organism-based; settings: in vivo, read-out: Vdss
[11] = AUClast in rat at 1 mg/kg/day; assay type: ADME, organism-based; design: time 0 - last, dose 1 mg/kg/day; settings: in vivo
[12] = AUClast in CFA-induced rheumatoid arthritis Lewis rat model at 1 mg/kg, po administered once daily for 15 days; assay type: ADME, organism-based; design: route oral, dose 1 mg/kg, time 15 day; settings: in vivo
[13] = Cmax in collagen-induced rheumatoid arthritis DBA/1J mouse model at 3 mg/kg, po administered twice daily for 15 days; assay type: ADME, organism-based; design: route oral, time 15 day, dose 3 mg/kg; settings: in vivo
[14] = AUClast in CFA-induced rheumatoid arthritis Lewis rat model at 3 mg/kg, po administered once daily for 15 days; assay type: ADME, organism-based; design: route oral, time 15 day, dose 3 mg/kg; settings: in vivo
Cytochrome P450 3A4 = Cytochrome P450 3A4 (Homo sapiens, UniProt P08684); experiment: Inhibition of CYP3A4 in human liver microsomes at 10 uM by LC-MS/MS analysis; assay type: ADME
[15] = AUC(0 to t) in human at […] measured on day 14; assay type: ADME, organism-based; design: time 14 day; settings: in vivo
[16] = Tmax in CFA-induced rheumatoid arthritis Lewis rat model at 1 mg/kg, po administered once daily for 15 days; assay type: ADME, organism-based; settings: in vivo, time 15 day
[17] = Cmax in CFA-induced rheumatoid arthritis Lewis rat model at 3 mg/kg, po administered once daily for 15 days; assay type: ADME, organism-based; design: route oral, time 15 day, dose 3 mg/kg; settings: in vivo
[18] = Cmax in collagen-induced rheumatoid arthritis DBA/1J mouse model at 3 mg/kg, po administered twice daily for 15 days in presence of 0.75 mg/kg of methotrexate; assay type: ADME, organism-based; design: route oral, dose 3 mg/kg, time 15 day; settings: in vivo
[19] = Cmax in Lewis rat at 1 mg/kg, iv measured upto 24 hrs by LC-MS/MS analysis; assay type: ADME, organism-based; design: route intravenous, dose 1 mg/kg, time <=24; settings: in vivo
[20] = AUClast in BALB/c mouse model of mBSA-induced delayed type hypersensitivity at 1 mg/kg, po administered twice daily for 7 days followed by mBSA challenge and measured after 24 hrs; assay type: ADME, organism-based; design: route oral, dose 1 mg/kg, time 8 day; settings: in vivo
[21] = Cmax in human whole blood at 80 mg, bid; assay type: ADME, tissue-based; design: dose 80 mg
[22] = AUClast in CFA-induced rheumatoid arthritis Lewis rat model at 0.3 mg/kg, po administered once daily for 15 days; assay type: ADME, organism-based; design: route oral, time 15 day, dose 0.3 mg/kg; settings: in vivo
[23] = Oral bioavailability in Lewis rat at 10 mg/kg measured upto 24 hrs by LC-MS/MS analysis; assay type: ADME, organism-based; settings: in vivo
[24] = Cmax in BALB/c mouse model of mBSA-induced delayed type hypersensitivity at 3 mg/kg, po administered twice daily for 7 days followed by mBSA challenge and measured after 24 hrs; assay type: ADME, organism-based; design: route oral, time 8 day, dose 3 mg/kg; settings: in vivo
[25] = AUClast in BALB/c mouse model of mBSA-induced delayed type hypersensitivity at 10 mg/kg, po administered twice daily for 7 days followed by mBSA challenge and measured after 24 hrs; assay type: ADME, organism-based; design: route oral, time 8 day, dose 10 mg/kg; settings: in vivo
[26] = AUClast in Lewis rat at 1 mg/kg, iv measured upto 24 hrs by LC-MS/MS analysis; assay type: ADME, organism-based; design: route intravenous, dose 1 mg/kg, time <=24; settings: in vivo
[27] = Tmax in BALB/c mouse at 1 mg/kg, iv measured upto 24 hrs by LC-MS/MS analysis; assay type: ADME, organism-based; settings: in vivo
[28] = biological target: Voltage-gated inwardly rectifying potassium channel KCNH2 (Homo sapiens, UniProt Q12809); experiment: Inhibition of human ERG by FLIPR TETRA method
[29] = Tmax in BALB/c mouse model of mBSA-induced delayed type hypersensitivity at 3 mg/kg, po administered twice daily for 7 days followed by mBSA challenge and measured after 24 hrs; assay type: ADME, organism-based; settings: in vivo, time 8 day
[30] = Cmax in BALB/c mouse model of mBSA-induced delayed type hypersensitivity at 1 mg/kg, po administered twice daily for 7 days followed by mBSA challenge and measured after 24 hrs; assay type: ADME, organism-based; design: route oral, time 8 day, dose 1 mg/kg; settings: in vivo
[31] = Cmax in human whole blood at 80 mg, qd; assay type: ADME, tissue-based; design: dose 80 mg
[32] = Cmax in rat at 60 mg/kg/day after 13 weeks; assay type: ADME, organism-based; design: time 13 weeks, dose 60 mg/kg/day; settings: in vivo
[33] = Trough concentration in human whole blood at 80 mg, bid; assay type: ADME, tissue-based; settings: read-out: Cmin
[34] = AUClast in BALB/c mouse model of mBSA-induced delayed type hypersensitivity at 3 mg/kg, po administered twice daily for 7 days followed by mBSA challenge and measured after 24 hrs; assay type: ADME, organism-based; design: route oral, time 8 day, dose 3 mg/kg; settings: in vivo
[35] = Trough concentration in human whole blood at 80 mg, qd; assay type: ADME, tissue-based; settings: read-out: Cmin
Cytochrome P450 2C9 = Cytochrome P450 2C9 (Homo sapiens, UniProt P11712); experiment: Inhibition of CYP2C9 in human liver microsomes at 10 uM by LC-MS/MS analysis; assay type: ADME
[36] = Clearance in Lewis rat at 1 mg/kg, iv measured upto 24 hrs by LC-MS/MS analysis; assay type: ADME, organism-based; settings: in vivo
[37] = Metabolic stability in rat liver microsomes preincubated for 5 mins followed by NADPH addition and measured upto 30 mins by LC-MS/MS analysis; assay type: ADME, Microsome; settings: 0.5 h, time <=35 min
[38] = Cmax in human whole blood at 160 mg, qd; assay type: ADME, tissue-based; design: dose 160 mg
[39] = Toxicity in human assessed as minimum effective dose
[40] = Cmax in BALB/c mouse at 10 mg/kg, po measured upto 24 hrs by LC-MS/MS analysis; assay type: ADME, organism-based; design: route oral, dose 10 mg/kg, time <=24; settings: in vivo
[41] = Tmax in BALB/c mouse model of mBSA-induced delayed type hypersensitivity at 10 mg/kg, po administered twice daily for 7 days followed by mBSA challenge and measured after 24 hrs; assay type: ADME, organism-based; settings: in vivo, time 8 day
[42] = Cmax in CFA-induced rheumatoid arthritis Lewis rat model at 1 mg/kg, po administered once daily for 15 days; assay type: ADME, organism-based; design: route oral, dose 1 mg/kg, time 15 day; settings: in vivo
[43] = Oral bioavailability in BALB/c mouse at 10 mg/kg measured upto 24 hrs by LC-MS/MS analysis; assay type: ADME, organism-based; settings: in vivo
[44] = Tmax in CFA-induced rheumatoid arthritis Lewis rat model at 0.3 mg/kg, po administered once daily for 15 days; assay type: ADME, organism-based; settings: in vivo, time 15 day
[45] = Tmax in BALB/c mouse model of mBSA-induced delayed type hypersensitivity at 1 mg/kg, po administered twice daily for 7 days followed by mBSA challenge and measured after 24 hrs; assay type: ADME, organism-based; settings: in vivo, time 8 day
Tumor necrosis factor = Tumor necrosis factor (Homo sapiens, UniProt P01375); experiment: Inhibition of TNF-alpha in thapsigargin stimulated human whole blood; assay type: tissue-based
[46] = Half life in Lewis rat at 10 mg/kg, po measured upto 24 hrs by LC-MS/MS analysis; assay type: ADME, organism-based; settings: in vivo

Cytochrome P450 2C9, sequence (P11712 whole entry): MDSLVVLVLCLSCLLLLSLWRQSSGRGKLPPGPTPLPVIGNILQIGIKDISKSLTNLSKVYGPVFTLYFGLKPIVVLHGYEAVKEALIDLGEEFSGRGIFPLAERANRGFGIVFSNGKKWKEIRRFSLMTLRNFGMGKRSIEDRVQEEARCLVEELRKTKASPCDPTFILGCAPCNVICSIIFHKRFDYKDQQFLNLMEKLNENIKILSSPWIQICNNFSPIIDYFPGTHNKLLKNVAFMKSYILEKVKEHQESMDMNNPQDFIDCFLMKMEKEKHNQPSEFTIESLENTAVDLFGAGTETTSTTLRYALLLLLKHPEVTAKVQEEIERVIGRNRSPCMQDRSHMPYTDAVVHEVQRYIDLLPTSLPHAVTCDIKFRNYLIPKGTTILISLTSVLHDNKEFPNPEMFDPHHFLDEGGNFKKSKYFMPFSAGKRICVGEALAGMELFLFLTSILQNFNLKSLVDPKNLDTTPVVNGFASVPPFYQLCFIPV
Cytochrome P450 3A4, sequence (P08684 whole entry): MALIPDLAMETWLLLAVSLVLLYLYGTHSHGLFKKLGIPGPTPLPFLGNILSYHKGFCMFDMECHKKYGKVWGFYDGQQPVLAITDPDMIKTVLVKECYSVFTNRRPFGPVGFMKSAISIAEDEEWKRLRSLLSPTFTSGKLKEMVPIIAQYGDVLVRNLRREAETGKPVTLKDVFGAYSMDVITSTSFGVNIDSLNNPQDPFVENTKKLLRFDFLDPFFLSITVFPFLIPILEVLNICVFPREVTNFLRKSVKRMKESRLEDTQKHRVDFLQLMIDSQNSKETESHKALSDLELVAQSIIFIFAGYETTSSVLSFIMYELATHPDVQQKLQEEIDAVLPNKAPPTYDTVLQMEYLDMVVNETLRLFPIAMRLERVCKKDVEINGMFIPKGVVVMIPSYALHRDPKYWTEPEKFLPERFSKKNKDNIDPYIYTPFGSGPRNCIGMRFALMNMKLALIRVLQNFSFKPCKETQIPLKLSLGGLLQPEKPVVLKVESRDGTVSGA
Tumor necrosis factor, sequence (P01375 whole entry): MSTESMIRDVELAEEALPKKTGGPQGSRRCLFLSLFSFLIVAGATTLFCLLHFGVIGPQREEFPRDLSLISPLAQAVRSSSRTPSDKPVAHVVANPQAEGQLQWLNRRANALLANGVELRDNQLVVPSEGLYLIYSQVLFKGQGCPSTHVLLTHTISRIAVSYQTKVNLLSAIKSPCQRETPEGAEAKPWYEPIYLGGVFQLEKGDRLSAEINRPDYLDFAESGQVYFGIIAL
Voltage-gated inwardly rectifying potassium channel KCNH2, sequence (Q12809 whole entry): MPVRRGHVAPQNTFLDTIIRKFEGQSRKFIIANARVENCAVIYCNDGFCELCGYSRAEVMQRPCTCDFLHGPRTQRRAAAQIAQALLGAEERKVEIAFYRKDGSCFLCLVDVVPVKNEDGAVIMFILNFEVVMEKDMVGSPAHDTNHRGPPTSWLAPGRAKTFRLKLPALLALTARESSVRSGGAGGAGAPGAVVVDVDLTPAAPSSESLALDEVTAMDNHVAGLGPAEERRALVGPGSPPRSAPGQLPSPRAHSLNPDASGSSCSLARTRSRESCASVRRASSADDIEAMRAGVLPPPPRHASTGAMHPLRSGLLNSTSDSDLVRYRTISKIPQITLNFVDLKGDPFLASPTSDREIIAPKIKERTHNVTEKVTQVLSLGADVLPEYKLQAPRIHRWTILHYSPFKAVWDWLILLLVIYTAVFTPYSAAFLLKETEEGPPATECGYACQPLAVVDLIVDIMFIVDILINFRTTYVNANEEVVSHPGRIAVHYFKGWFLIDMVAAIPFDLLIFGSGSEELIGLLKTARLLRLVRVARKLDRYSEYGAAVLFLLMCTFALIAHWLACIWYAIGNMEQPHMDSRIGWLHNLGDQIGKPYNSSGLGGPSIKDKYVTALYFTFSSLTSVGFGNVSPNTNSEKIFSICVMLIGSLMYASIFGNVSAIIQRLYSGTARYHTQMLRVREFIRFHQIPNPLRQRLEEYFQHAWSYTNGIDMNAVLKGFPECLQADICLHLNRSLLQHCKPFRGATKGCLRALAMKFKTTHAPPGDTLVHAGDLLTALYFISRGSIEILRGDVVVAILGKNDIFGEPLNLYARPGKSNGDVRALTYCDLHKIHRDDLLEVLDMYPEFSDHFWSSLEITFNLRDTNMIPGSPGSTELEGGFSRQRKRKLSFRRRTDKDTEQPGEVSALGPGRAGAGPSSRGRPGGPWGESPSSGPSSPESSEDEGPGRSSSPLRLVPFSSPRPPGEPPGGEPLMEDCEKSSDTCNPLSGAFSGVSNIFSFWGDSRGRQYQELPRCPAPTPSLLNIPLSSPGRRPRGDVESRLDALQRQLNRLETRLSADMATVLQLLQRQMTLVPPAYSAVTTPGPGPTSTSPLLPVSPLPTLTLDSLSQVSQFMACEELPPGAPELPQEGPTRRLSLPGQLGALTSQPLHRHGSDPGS

For `Cc1c(-c2ccc(NC(=O)c3c(F)cccc3F)cc2)cccc1-c1nn(C)c(=O)o1`, the Cmax [1] was 3300 nM, the Cmax [2] was 2 µM and 843 ng/mL and the Cmax [3] was 5440 ng/mL. For the same compound, the Tmax [4] was 4 h, the Tmax [5] was 1 h and the Stability [6] was “Stable”. It also gave a Cmax [7] of 600 nM, an MTD [8] of 2000 mg/kg and a concentration [9] of 403 nM. The Vd [10] was 2.3 L/kg, the AUC(0-t) [11] was 36 µM·h and 15200 ng·h/mL and the AUC(0-t) at 360 h [12] was 36 µM·h. The Cmax [13] was 1900 nM, the AUC(0-t) at 360 h [14] was 80 µM·h and the “inhibition (INH)” value (Cytochrome P450 3A4) was “Not Active”. For the same compound, the AUC(0-t) at 336 h [15] was 7050 ng·h/mL, the Tmax [16] was 2 h and the Cmax [17] was 4500 nM. The Cmax [18] was 1600 nM, the Cmax [19] was 4000 nM and the AUC(0-t) at 192 h [20] was 3.1 µM·h. The Cmax [21] was 1570 nM, the AUC(0-t) at 360 h [22] was 10 µM·h and the bioavailability [23] was 100%. For the same compound, the Cmax [24] was 1600 nM, the AUC(0-t) at 192 h [25] was 17 µM·h and the AUC(0-t) at 24 h [26] was 29 µM·h. It also gave a Tmax [27] of 4.8 min, an IC50 [28] greater than 10000 nM and a Tmax [29] of 2 h. It also gave a Cmax [30] of 600 nM, a Cmax [31] of 950 nM and a Cmax [32] of 4680 ng/mL. The concentration [33] was 667 nM, the AUC(0-t) at 192 h [34] was 8.3 µM·h and the concentration [35] was 185 nM. The “inhibition (INH)” value (Cytochrome P450 2C9) was “Not Active”, the clearance [36] was 0.9 mL/min/kg and the Stability [37] was “Stable”. The Cmax [38] was 1760 nM, the MED [39] was 80 mg/kg and the Cmax [40] was 4000 nM. For the same compound, the Tmax [41] was 2 h, the Cmax [42] was 2000 nM and the bioavailability [43] was 79%. For the same compound, the Tmax [44] was 2 h, the Tmax [45] was 2 h and the IC50 (Tumor necrosis factor) was 694 nM.

For `Cc1c(-c2ccc(NC(=O)c3c(F)cccc3Cl)cc2)cccc1-c1nn(C)c(=O)o1`, the Stability [6] was “Stable”, the Vd [10] was 2.3 L/kg and the “inhibition (INH)” value (Cytochrome P450 3A4) was “Not Active”. For the same compound, the half-life [46] was 16 h, the Cmax [19] was 5000 nM and the bioavailability [23] was 60%. The AUC(0-t) at 24 h [26] was 28 µM·h, the Tmax [27] was 4.8 min and the “inhibition (INH)” value (Cytochrome P450 2C9) was “Not Active”. The clearance [36] was 1 mL/min/kg, the Stability [37] was “Stable” and the Cmax [40] was 4700 nM. For the same compound, the bioavailability [43] was 100%.
